According to PMC8037182, “Solvothermal Synthesis of Multiple Dihydropyrimidinones at a Time as Inhibitors of Eg5” (Molecules, 2021):

Tested on: Caco-2 cell line
Test: Cytotoxicity MTS assay, Caco-2 cell line
Type: cell-based
Details: for OD490 Mean / OD490 Well 1 / OD490 Well 2 / OD490 Well 3: Caco-2 cell line; for IC50: MTS assay, 24 h exposure
In short: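 Absorbance at 490 nm after a 2 h MTS step at 37 °C gave cell viability. Before that, cells plated at 1000/well were treated for 24 h with compounds spanning 0.5–100 µM (final). IC50 values were fitted by non-linear regression of percent viability versus concentration.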

CCOC(=O)c1[nH]c(C2NC(=S)NC(C)=C2C(=O)OC)c(C(=O)OCC)c1C (centres unmarked) [D12]
OD490 Mean (0.5μM, first assay): 0.5030 | OD490 Well 1 (0.5μM, first assay): 0.4995 | OD490 Well 2 (0.5μM, first assay): 0.5121 | OD490 Well 3 (0.5μM, first assay): 0.4973 | OD490 Mean (0.5μM, second assay): 0.6834 | OD490 Well 1 (0.5μM, second assay): 0.5732 | OD490 Well 2 (0.5μM, second assay): 0.7838 | OD490 Well 3 (0.5μM, second assay): 0.6933 | OD490 Mean (0.5μM, third assay): 0.6157 | OD490 Well 1 (0.5μM, third assay): 0.6017 | OD490 Well 2 (0.5μM, third assay): 0.6354 | OD490 Well 3 (0.5μM, third assay): 0.6100 | OD490 Mean (1μM, first assay): 0.4963 | OD490 Well 1 (1μM, first assay): 0.4703 | OD490 Well 2 (1μM, first assay): 0.5352 | OD490 Well 3 (1μM, first assay): 0.4835 | OD490 Mean (1μM, second assay): 0.6457 | OD490 Well 1 (1μM, second assay): 0.5559 | OD490 Well 2 (1μM, second assay): 0.7221 | OD490 Well 3 (1μM, second assay): 0.6591 | OD490 Mean (1μM, third assay): 0.6229 | OD490 Well 1 (1μM, third assay): 0.6178 | OD490 Well 2 (1μM, third assay): 0.6489 | OD490 Well 3 (1μM, third assay): 0.6021 | OD490 Mean (10μM, first assay): 0.5326 | OD490 Well 1 (10μM, first assay): 0.5238 | OD490 Well 2 (10μM, first assay): 0.5488 | OD490 Well 3 (10μM, first assay): 0.5251 | OD490 Mean (10μM, second assay): 0.6099 | OD490 Well 1 (10μM, second assay): 0.585 | OD490 Well 2 (10μM, second assay): 0.6539 | OD490 Well 3 (10μM, second assay): 0.5909 | OD490 Mean (10μM, third assay): 0.6194 | OD490 Well 1 (10μM, third assay): 0.6123 | OD490 Well 2 (10μM, third assay): 0.6244 | OD490 Well 3 (10μM, third assay): 0.6214 | OD490 Mean (25μM, first assay): 0.5279 | OD490 Well 1 (25μM, first assay): 0.5868 | OD490 Well 2 (25μM, first assay): 0.5324 | OD490 Well 3 (25μM, first assay): 0.4646 | OD490 Mean (25μM, second assay): 0.5376 | OD490 Well 1 (25μM, second assay): 0.5247 | OD490 Well 2 (25μM, second assay): 0.5145 | OD490 Well 3 (25μM, second assay): 0.5736 | OD490 Mean (25μM, third assay): 0.5839 | OD490 Well 1 (25μM, third assay): 0.5863 | OD490 Well 2 (25μM, third assay): 0.5944 | OD490 Well 3 (25μM, third assay): 0.5711 | OD490 Mean (50μM, first assay): 0.5705 | OD490 Well 1 (50μM, first assay): 0.5776 | OD490 Well 2 (50μM, first assay): 0.5840 | OD490 Well 3 (50μM, first assay): 0.5499 | OD490 Mean (50μM, second assay): 0.6141 | OD490 Well 1 (50μM, second assay): 0.6452 | OD490 Well 2 (50μM, second assay): 0.6668 | OD490 Well 3 (50μM, second assay): 0.5302 | OD490 Mean (50μM, third assay): 0.5882 | OD490 Well 1 (50μM, third assay): 0.5933 | OD490 Well 2 (50μM, third assay): 0.5725 | OD490 Well 3 (50μM, third assay): 0.5988 | OD490 Mean (100μM, first assay): 0.4236 | OD490 Well 1 (100μM, first assay): 0.4210 | OD490 Well 2 (100μM, first assay): 0.4345 | OD490 Well 3 (100μM, first assay): 0.4153 | OD490 Mean (100μM, second assay): 0.5967 | OD490 Well 1 (100μM, second assay): 0.5668 | OD490 Well 2 (100μM, second assay): 0.6735 | OD490 Well 3 (100μM, second assay): 0.5498 | OD490 Mean (100μM, third assay): 0.4730 | OD490 Well 1 (100μM, third assay): 0.4925 | OD490 Well 2 (100μM, third assay): 0.4687 | OD490 Well 3 (100μM, third assay): 0.4578 | IC50: 148 µM

COC(=O)c1[nH]c(C2NC(=S)NC(C)=C2C(=O)c2ccccc2)c(C(=O)OC)c1C (centres unmarked) [D14]
OD490 Mean (0.5μM, first assay): 0.5996 | OD490 Well 1 (0.5μM, first assay): 0.5553 | OD490 Well 2 (0.5μM, first assay): 0.5560 | OD490 Well 3 (0.5μM, first assay): 0.6875 | OD490 Mean (0.5μM, second assay): 0.6725 | OD490 Well 1 (0.5μM, second assay): 0.6506 | OD490 Well 2 (0.5μM, second assay): 0.6879 | OD490 Well 3 (0.5μM, second assay): 0.6791 | OD490 Mean (0.5μM, third assay): 0.6452 | OD490 Well 1 (0.5μM, third assay): 0.6120 | OD490 Well 2 (0.5μM, third assay): 0.6285 | OD490 Well 3 (0.5μM, third assay): 0.6952 | OD490 Mean (1μM, second assay): 0.6718 | OD490 Well 1 (1μM, second assay): 0.6251 | OD490 Well 2 (1μM, second assay): 0.6916 | OD490 Well 3 (1μM, second assay): 0.6987 | OD490 Mean (1μM, third assay): 0.6246 | OD490 Well 1 (1μM, third assay): 0.6324 | OD490 Well 2 (1μM, third assay): 0.6014 | OD490 Well 3 (1μM, third assay): 0.6401 | OD490 Mean (10μM, first assay): 0.6223 | OD490 Well 1 (10μM, first assay): 0.6178 | OD490 Well 2 (10μM, first assay): 0.6082 | OD490 Well 3 (10μM, first assay): 0.6409 | OD490 Mean (10μM, second assay): 0.6139 | OD490 Well 1 (10μM, second assay): 0.6136 | OD490 Well 2 (10μM, second assay): 0.6117 | OD490 Well 3 (10μM, second assay): 0.6164 | OD490 Mean (10μM, third assay): 0.6241 | OD490 Well 1 (10μM, third assay): 0.5987 | OD490 Well 2 (10μM, third assay): 0.6312 | OD490 Well 3 (10μM, third assay): 0.6424 | OD490 Mean (25μM, first assay): 0.5939 | OD490 Well 1 (25μM, first assay): 0.5396 | OD490 Well 2 (25μM, first assay): 0.5578 | OD490 Well 3 (25μM, first assay): 0.6844 | OD490 Mean (25μM, second assay): 0.5279 | OD490 Well 1 (25μM, second assay): 0.4988 | OD490 Well 2 (25μM, second assay): 0.5384 | OD490 Well 3 (25μM, second assay): 0.5466 | OD490 Mean (25μM, third assay): 0.5570 | OD490 Well 1 (25μM, third assay): 0.5324 | OD490 Well 2 (25μM, third assay): 0.5784 | OD490 Well 3 (25μM, third assay): 0.5601 | OD490 Mean (50μM, first assay): 0.5128 | OD490 Well 1 (50μM, first assay): 0.5310 | OD490 Well 2 (50μM, first assay): 0.5192 | OD490 Well 3 (50μM, first assay): 0.4883 | OD490 Mean (50μM, second assay): 0.5200 | OD490 Well 1 (50μM, second assay): 0.5229 | OD490 Well 2 (50μM, second assay): 0.564 | OD490 Well 3 (50μM, second assay): 0.4732 | OD490 Mean (50μM, third assay): 0.4713 | OD490 Well 1 (50μM, third assay): 0.4985 | OD490 Well 2 (50μM, third assay): 0.4532 | OD490 Well 3 (50μM, third assay): 0.4621 | OD490 Mean (100μM, first assay): 0.4642 | OD490 Well 1 (100μM, first assay): 0.4537 | OD490 Well 2 (100μM, first assay): 0.4965 | OD490 Well 3 (100μM, first assay): 0.4424 | OD490 Mean (100μM, second assay): 0.4817 | OD490 Well 1 (100μM, second assay): 0.4326 | OD490 Well 2 (100μM, second assay): 0.5246 | OD490 Well 3 (100μM, second assay): 0.4878 | OD490 Mean (100μM, third assay): 0.4653 | OD490 Well 1 (100μM, third assay): 0.4632 | OD490 Well 2 (100μM, third assay): 0.4397 | OD490 Well 3 (100μM, third assay): 0.4930 | IC50: 103 µM

CCOC(=O)C1=C(C)NC(=S)NC1c1cccc(O)c1 (centres unmarked) [Monastrol, monastrol, reference compound]
OD490 Mean (0.5μM, first assay): 0.6317 | OD490 Well 1 (0.5μM, first assay): 0.6883 | OD490 Well 2 (0.5μM, first assay): 0.6260 | OD490 Well 3 (0.5μM, first assay): 0.5808 | OD490 Mean (0.5μM, second assay): 0.6461 | OD490 Well 1 (0.5μM, second assay): 0.6307 | OD490 Well 2 (0.5μM, second assay): 0.6567 | OD490 Well 3 (0.5μM, second assay): 0.6508 | OD490 Mean (0.5μM, third assay): 0.6299 | OD490 Well 1 (0.5μM, third assay): 0.6325 | OD490 Well 2 (0.5μM, third assay): 0.6000 | OD490 Well 3 (0.5μM, third assay): 0.6531 | OD490 Mean (1μM, first assay): 0.6316 | OD490 Well 1 (1μM, first assay): 0.6697 | OD490 Well 2 (1μM, first assay): 0.6037 | OD490 Well 3 (1μM, first assay): 0.6213 | OD490 Mean (1μM, second assay): 0.6874 | OD490 Well 1 (1μM, second assay): 0.6746 | OD490 Well 2 (1μM, second assay): 0.7532 | OD490 Well 3 (1μM, second assay): 0.6345 | OD490 Mean (1μM, third assay): 0.6466 | OD490 Well 1 (1μM, third assay): 0.6332 | OD490 Well 2 (1μM, third assay): 0.6854 | OD490 Well 3 (1μM, third assay): 0.6211 | OD490 Mean (10μM, first assay): 0.6065 | OD490 Well 1 (10μM, first assay): 0.6414 | OD490 Well 2 (10μM, first assay): 0.6303 | OD490 Well 3 (10μM, first assay): 0.5477 | OD490 Mean (10μM, second assay): 0.6609 | OD490 Well 1 (10μM, second assay): 0.6953 | OD490 Well 2 (10μM, second assay): 0.6962 | OD490 Well 3 (10μM, second assay): 0.5912 | OD490 Mean (10μM, third assay): 0.5909 | OD490 Well 1 (10μM, third assay): 0.6012 | OD490 Well 2 (10μM, third assay): 0.6583 | OD490 Well 3 (10μM, third assay): 0.5132 | OD490 Mean (25μM, first assay): 0.5366 | OD490 Well 1 (25μM, first assay): 0.5485 | OD490 Well 2 (25μM, first assay): 0.5284 | OD490 Well 3 (25μM, first assay): 0.5329 | OD490 Mean (25μM, second assay): 0.5966 | OD490 Well 1 (25μM, second assay): 0.5969 | OD490 Well 2 (25μM, second assay): 0.6213 | OD490 Well 3 (25μM, second assay): 0.5715 | OD490 Mean (25μM, third assay): 0.5678 | OD490 Well 1 (25μM, third assay): 0.5784 | OD490 Well 2 (25μM, third assay): 0.5810 | OD490 Well 3 (25μM, third assay): 0.5439 | OD490 Mean (50μM, first assay): 0.4955 | OD490 Well 1 (50μM, first assay): 0.4127 | OD490 Well 2 (50μM, first assay): 0.5627 | OD490 Well 3 (50μM, first assay): 0.5110 | OD490 Mean (50μM, second assay): 0.5572 | OD490 Well 1 (50μM, second assay): 0.594 | OD490 Well 2 (50μM, second assay): 0.5177 | OD490 Well 3 (50μM, second assay): 0.5598 | OD490 Mean (50μM, third assay): 0.5174 | OD490 Well 1 (50μM, third assay): 0.5287 | OD490 Well 2 (50μM, third assay): 0.5021 | OD490 Well 3 (50μM, third assay): 0.5214 | OD490 Mean (100μM, first assay): 0.4461 | OD490 Well 1 (100μM, first assay): 0.4497 | OD490 Well 2 (100μM, first assay): 0.4701 | OD490 Well 3 (100μM, first assay): 0.4184 | OD490 Mean (100μM, second assay): 0.5109 | OD490 Well 1 (100μM, second assay): 0.5213 | OD490 Well 2 (100μM, second assay): 0.5306 | OD490 Well 3 (100μM, second assay): 0.4809 | OD490 Mean (100μM, third assay): 0.4670 | OD490 Well 1 (100μM, third assay): 0.4321 | OD490 Well 2 (100μM, third assay): 0.4767 | OD490 Well 3 (100μM, third assay): 0.4922 | IC50 (Homo sapiens, Caco-2): 112 µM
